“And” between values parts separate entries of the source, which are not always exact repeats. Equal entries are not always repeated. Inconclusive results and toxic doses are left out.
System: BDF1 mice, P388 leukemia ip, median survival T/C
Experiment: NCI In Vivo Anticancer Drug Screen. Data for tumor model P388 Leukemia (intraperitoneal) in B6D2F1 (BDF1) mice
Details: endpoint: median survival time, higher = longer survival
Outline: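 Compound-treated tumour-bearing mice were compared with vehicle-treated controls. Survival was recorded, and the value is the treated-group measurement divided by the control-group measurement (T/C).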

[1] = dose: 50.0 mg/kg/injection, schedule: Q04DX003 (ip), vehicle: saline
[2] = dose: 100.0 mg/kg/injection, schedule: Q04DX003 (ip), vehicle: saline sonified
[3] = dose: 6.25 mg/kg/injection, schedule: Q01DX009 (ip), vehicle: saline
[4] = dose: 12.5 mg/kg/injection, schedule: Q01DX009 (ip), vehicle: saline
[5] = dose: 25.0 mg/kg/injection, schedule: Q01DX009 (ip), vehicle: saline
[6] = dose: 100.0 mg/kg/injection, schedule: Q01DX009 (ip), vehicle: saline with Tween-80
[7] = dose: 100.0 mg/kg/injection, schedule: Q04DX003 (ip), vehicle: saline with Tween-80
[8] = dose: 200.0 mg/kg/injection, schedule: Q04DX003 (ip), vehicle: saline with Tween-80
[9] = dose: 400.0 mg/kg/injection, schedule: Q04DX003 (ip), vehicle: saline with Tween-80
[10] = dose: 50.0 mg/kg/injection, schedule: Q01DX009 (ip), vehicle: saline
[11] = dose: 100.0 mg/kg/injection, schedule: Q01DX009 (ip), vehicle: saline
[12] = dose: 200.0 mg/kg/injection, schedule: Q01DX009 (ip), vehicle: saline
[13] = dose: 50.0 mg/kg/injection, schedule: Q01DX009 (ip), vehicle: saline with Tween-80
[14] = dose: 100.0 mg/kg/injection, schedule: Q04DX003 (ip), vehicle: Klucel (hydroxypropylcellulose) (HPC)
[15] = dose: 150.0 mg/kg/injection, schedule: Q01DX009 (ip), vehicle: Klucel (hydroxypropylcellulose) (HPC)
[16] = dose: 200.0 mg/kg/injection, schedule: Q04DX003 (ip), vehicle: Klucel (hydroxypropylcellulose) (HPC)
[17] = dose: 400.0 mg/kg/injection, schedule: Q04DX003 (ip), vehicle: Klucel (hydroxypropylcellulose) (HPC)

With `C[C@@H]1C[C@H]2[C@@H]3CCC4=CC(=O)C=C[C@]4(C)[C@@]3(F)[C@@H](O)C[C@]2(C)[C@@]1(O)C(=O)CO` the T/C (dose: 6.25 mg/kg/injection, schedule: Q04DX003 (ip), vehicle: saline) was 104 % of control, the T/C (dose: 12.5 mg/kg/injection, schedule: Q04DX003 (ip), vehicle: saline) was 109 % of control and the T/C (dose: 16.5 mg/kg/injection, schedule: Q04DX003 (ip), vehicle: saline) was 112 % of control and 122 % of control. For the same molecule, the T/C (dose: 25.0 mg/kg/injection, schedule: Q04DX003 (ip), vehicle: saline sonified) was 110 % of control, the T/C (dose: 25.0 mg/kg/injection, schedule: Q04DX003 (ip), vehicle: saline) was 100 % of control and 113 % of control and the T/C (dose: 37.5 mg/kg/injection, schedule: Q04DX003 (ip), vehicle: saline) was 109 % of control and 112 % of control. For the same molecule, the T/C (dose: 50.0 mg/kg/injection, schedule: Q04DX003 (ip), vehicle: saline sonified) was 110 % of control, the T/C [1] was 90 % of control and the T/C (dose: 55.0 mg/kg/injection, schedule: Q04DX003 (ip), vehicle: saline) was 110 % of control. The T/C (dose: 85.0 mg/kg/injection, schedule: Q04DX003 (ip), vehicle: saline) was 119 % of control and the T/C [2] was 100 % of control.
For `CC(=O)c1ccc(Oc2ccc(/C(C)=N\N=C(N)N)cc2)cc1`, the T/C [3] was 111 % of control, the T/C [4] was 112 % of control and 117 % of control and the T/C (dose: 16.0 mg/kg/injection, schedule: Q01DX009 (ip), vehicle: saline) was 116 % of control. The T/C [5] was 110 % of control.
With `c1ccc(CCN2CCC(CCc3c[nH]c4ccccc34)CC2)cc1` the T/C (dose: 12.5 mg/kg/injection, schedule: Q01DX010 (ip), vehicle: saline) was 100 % of control, the T/C (dose: 25.0 mg/kg/injection, schedule: Q01DX010 (ip), vehicle: saline) was 109 % of control and the T/C (dose: 50.0 mg/kg/injection, schedule: Q01DX010 (ip), vehicle: saline) was 122 % of control. The T/C (dose: 100.0 mg/kg/injection, schedule: Q01DX010 (ip), vehicle: saline) was 114 % of control.
`O=Cc1nc2ccccc2c2ccccc12` was tested, and the T/C (dose: 100.0 mg/kg/injection, schedule: Q01DX001 (ip), vehicle: saline sonified) was 100 % of control, the T/C (dose: 200.0 mg/kg/injection, schedule: Q01DX001 (ip), vehicle: saline sonified) was 100 % of control and the T/C (dose: 400.0 mg/kg/injection, schedule: Q01DX001 (ip), vehicle: saline sonified) was 100 % of control.
With `CCC(=O)OCc1c(C)nc2sccn12` the T/C (dose: 25.0 mg/kg/injection, schedule: Q01DX001 (ip), vehicle: saline) was 96 % of control, the T/C (dose: 50.0 mg/kg/injection, schedule: Q01DX001 (ip), vehicle: saline) was 102 % of control and the T/C (dose: 100.0 mg/kg/injection, schedule: Q01DX001 (ip), vehicle: saline) was 105 % of control.
In the case of `Cn1nnc2nnc(-c3ccccc3)n21`, the T/C [6] is reported as 100 % of control, the T/C [7] is reported as 100 % of control and the T/C (dose: 200.0 mg/kg/injection, schedule: Q01DX009 (ip), vehicle: saline with Tween-80) is reported as 103 % of control. The T/C [8] was 100 % of control and the T/C [9] was 95 % of control.
For `CC(=O)NC(CC(=O)O)C(=O)O` (stereo unspecified), the T/C [5] was 95 % of control, the T/C [10] was 95 % of control and the T/C [11] was 105 % of control.
With `COc1ccc(Cc2nccc3c(OC)c(OC)ccc23)cc1OC` the T/C [5] was 116 % of control, the T/C [10] was 106 % of control and 119 % of control and the T/C [1] was 103 % of control. For the same molecule, the T/C (dose: 75.0 mg/kg/injection, schedule: Q01DX009 (ip), vehicle: saline) was 119 % of control, the T/C [11] was 119 % of control and the T/C (dose: 100.0 mg/kg/injection, schedule: Q04DX003 (ip), vehicle: saline) was 103 % of control. For the same molecule, the T/C [12] was 87 % of control and the T/C (dose: 200.0 mg/kg/injection, schedule: Q04DX003 (ip), vehicle: saline) was 87 % of control.
In the case of `CC(=O)NC(CCC(=O)C=[N+]=N)C(=O)O` (stereo unspecified), the T/C (dose: 0.05 mg/kg/injection, schedule: Q01DX010 (ip), vehicle: other) is reported as 115 % of control, the T/C (dose: 0.1 mg/kg/injection, schedule: Q01DX010 (ip), vehicle: other) is reported as 110 % of control and the T/C (dose: 0.2 mg/kg/injection, schedule: Q01DX010 (ip), vehicle: other) is reported as 120 % of control. The T/C (dose: 0.6 mg/kg/injection, schedule: Q01DX010 (ip), vehicle: other) was 154 % of control, the T/C (dose: 0.8 mg/kg/injection, schedule: Q01DX010 (ip), vehicle: other) was 168 % of control and the T/C (dose: 1.0 mg/kg/injection, schedule: Q01DX010 (ip), vehicle: other) was 100 % of control.
In the case of `CCOc1cccc(/C=N/n2c(-c3ccccc3Cl)nc3ccccc3c2=O)c1O`, the T/C [13] is reported as 90 % of control and the T/C [6] is reported as 87 % of control.
For `CCOC(=O)S(=O)(=O)c1ccc(C)cc1`, the T/C [3] was 90 % of control, the T/C [4] was 90 % of control and the T/C [5] was 115 % of control.
`Cc1ccc2c(c1)=N/C(=N\c1nc(O)c(O)[nH]1)N=2` was tested, and the T/C (dose: 60.0 mg/kg/injection, schedule: Q01DX009 (ip), vehicle: Klucel (hydroxypropylcellulose) (HPC)) was 98 % of control, the T/C (dose: 66.0 mg/kg/injection, schedule: Q01DX009 (ip), vehicle: Klucel (hydroxypropylcellulose) (HPC)) was 106 % of control and the T/C (dose: 100.0 mg/kg/injection, schedule: Q01DX009 (ip), vehicle: Klucel (hydroxypropylcellulose) (HPC)) was 103 % of control and 118 % of control. The T/C [14] was 104 % of control, the T/C (dose: 140.0 mg/kg/injection, schedule: Q01DX009 (ip), vehicle: Klucel (hydroxypropylcellulose) (HPC)) was 97 % of control and the T/C [15] was 168 % of control. The T/C (dose: 200.0 mg/kg/injection, schedule: Q01DX009 (ip), vehicle: Klucel (hydroxypropylcellulose) (HPC)) was 116 % of control, the T/C [16] was 100 % of control and the T/C (dose: 400.0 mg/kg/injection, schedule: Q01DX009 (ip), vehicle: Klucel (hydroxypropylcellulose) (HPC)) was 111 % of control. For the same molecule, the T/C [17] was 95 % of control.
`CCN1c2c(nc(N)[nH]c2=O)NCC1CNc1ccc(C(=O)NC(CCC(=O)O)C(=O)O)cc1` (stereo unspecified) was tested, and the T/C [11] was 101 % of control, the T/C [12] was 105 % of control and the T/C (dose: 400.0 mg/kg/injection, schedule: Q01DX009 (ip), vehicle: saline) was 105 % of control.
In the case of `COC(=O)c1c(Cl)c(Cl)c(Cl)c(Cl)c1C(=O)O`, the T/C [13] is reported as 110 % of control.
In the case of `CCOC(=O)C1(C)C(=O)CC2c3nc4ccccc4cc3CN2C1=O` (stereo unspecified), the T/C [14] is reported as 100 % of control, the T/C [16] is reported as 100 % of control and the T/C [17] is reported as 100 % of control.
For `CC(C#N)(Nc1ccccc1)c1ccc(Br)cc1` (stereo unspecified), the T/C [2] was 104 % of control, the T/C (dose: 200.0 mg/kg/injection, schedule: Q04DX003 (ip), vehicle: saline sonified) was 95 % of control and the T/C (dose: 400.0 mg/kg/injection, schedule: Q04DX003 (ip), vehicle: saline sonified) was 95 % of control.
In the case of `CCCCCCCCCCCCCCCCCCCC/C=C/C1CC(=O)OC1=O` (stereo unspecified), the T/C (dose: 75.0 mg/kg/injection, schedule: Q01DX009 (ip), vehicle: Klucel (hydroxypropylcellulose) (HPC)) is reported as 95 % of control, the T/C [14] is reported as 100 % of control and the T/C [15] is reported as 95 % of control. For the same molecule, the T/C [16] was 87 % of control, the T/C (dose: 300.0 mg/kg/injection, schedule: Q01DX009 (ip), vehicle: Klucel (hydroxypropylcellulose) (HPC)) was 86 % of control and the T/C [17] was 87 % of control.
For `COC(=O)C(CSCc1ccccc1)NC(=O)CCNC(=O)OCc1ccccc1` (stereo unspecified), the T/C (dose: 1.56 mg/kg/injection, schedule: Q04DX003 (ip), vehicle: Klucel (hydroxypropylcellulose) (HPC)) was 100 % of control, the T/C (dose: 3.13 mg/kg/injection, schedule: Q04DX003 (ip), vehicle: Klucel (hydroxypropylcellulose) (HPC)) was 104 % of control and the T/C (dose: 6.25 mg/kg/injection, schedule: Q04DX003 (ip), vehicle: Klucel (hydroxypropylcellulose) (HPC)) was 113 % of control. The T/C (dose: 12.5 mg/kg/injection, schedule: Q04DX003 (ip), vehicle: Klucel (hydroxypropylcellulose) (HPC)) was 104 % of control, the T/C (dose: 12.5 mg/kg/injection, schedule: Q04DX003 (ip), vehicle: saline with Tween-80) was 93 % of control and the T/C (dose: 25.0 mg/kg/injection, schedule: Q04DX003 (ip), vehicle: saline with Tween-80) was 102 % of control. The T/C (dose: 50.0 mg/kg/injection, schedule: Q04DX003 (ip), vehicle: saline with Tween-80) was 100 % of control, the T/C [7] was 107 % of control and the T/C [8] was 94 % of control. For the same molecule, the T/C [9] was 94 % of control.
`CCN(CC)CCn1c(=O)c2ccccc2c2ccccc21` was tested, and the T/C [4] was 120 % of control, the T/C [5] was 105 % of control and the T/C [10] was 120 % of control.

From PubChem BioAssay AID328 (DTP/NCI, 2004)
